# Measurements as given in BindingDB's records for doi:10.1021/jm00148a009 (1985).
# Target: Prostacyclin synthase (Sus scrofa)
# Experiment: Inhibition of porcine aorta prostacyclin PGI-2 synthase by bioassay method
smiles,measurement,value
O=C(O)Cc1ccccc1OCCn1ccnc1 [[2-(2-Imidazol-1-yl-ethoxy)-phenyl]-acetic acid],IC50,> 100 µM
c1cn(CCOc2ccc(-c3nnn[nH]3)cc2)cn1 [5-[4-(2-Imidazol-1-yl-ethoxy)-phenyl]-1H-tetrazole],IC50,> 100 µM
CC(=O)Nc1ccc(OCCn2ccnc2)cc1 [N-[4-(2-Imidazol-1-yl-ethoxy)-phenyl]-acetamide],IC50,> 100 µM
